Source: the supplement of paper PMC10307832

Assays:
Assay in all cases: relative viability (nuclei count vs DMSO), 5 days (fraction); higher = more cells survive
Alisertib + Trametinib = compound: COc1cc(Nc2ncc3c(n2)-c2ccc(Cl)cc2C(c2c(F)cccc2OC)=NC3)ccc1C(=O)O [Alisertib] + CC(=O)Nc1cccc(-n2c(=O)n(C3CC3)c(=O)c3c(Nc4ccc(I)cc4F)n(C)c(=O)c(C)c32)c1 [Trametinib] (partner 0.02 µM)
Outline: (§1)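 For relative viability, nuclei counts in treated wells were divided by those in vehicle wells. Lung cancer cell lines had been pin-tool dosed in 1536-well plates the day after seeding and cultured for 5 days, then fixed and stained in one step (final 0.05% Triton X-100, 1% formaldehyde, 1 ug/ml Hoechst) and imaged at 4×. Doses were one drug alone or a fixed anchor-drug dose plus five library-drug doses (not always all listed) in √10 steps, and values are duplicate-plate medians.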

Alisertib + Lapatinib = compound: COc1cc(Nc2ncc3c(n2)-c2ccc(Cl)cc2C(c2c(F)cccc2OC)=NC3)ccc1C(=O)O [Alisertib] + CS(=O)(=O)CCNCc1ccc(-c2ccc3ncnc(Nc4ccc(OCc5cccc(F)c5)c(Cl)c4)c3c2)o1 [Lapatinib] (partner 2 µM)
Outline: as §1

Alisertib + Phenformin = compound: COc1cc(Nc2ncc3c(n2)-c2ccc(Cl)cc2C(c2c(F)cccc2OC)=NC3)ccc1C(=O)O [Alisertib] + N=C(N)NC(=N)NCCc1ccccc1 [Phenformin] (partner 250 µM)
Outline: as §1

Alisertib + Olaparib = compound: COc1cc(Nc2ncc3c(n2)-c2ccc(Cl)cc2C(c2c(F)cccc2OC)=NC3)ccc1C(=O)O [Alisertib] + O=C(c1cc(Cc2n[nH]c(=O)c3ccccc23)ccc1F)N1CCN(C(=O)C2CC2)CC1 [Olaparib] (partner 8 µM)
Outline: as §1

| Cell Line | relative viability (Alisertib + Trametinib; first compound 0.005 µM) | relative viability (Alisertib + Trametinib; first compound 0.01581 µM) | relative viability (Alisertib + Trametinib; first compound 0.05 µM) | relative viability (Alisertib + Trametinib; first compound 0.1581 µM) | relative viability (Alisertib + Trametinib; first compound 0.5 µM) | relative viability (Alisertib + Lapatinib; first compound 0.005 µM) | relative viability (Alisertib + Lapatinib; first compound 0.01581 µM) | relative viability (Alisertib + Lapatinib; first compound 0.05 µM) | relative viability (Alisertib + Lapatinib; first compound 0.1581 µM) | relative viability (Alisertib + Lapatinib; first compound 0.5 µM) | relative viability (Alisertib + Phenformin; first compound 0.005 µM) | relative viability (Alisertib + Phenformin; first compound 0.01581 µM) | relative viability (Alisertib + Phenformin; first compound 0.05 µM) | relative viability (Alisertib + Phenformin; first compound 0.1581 µM) | relative viability (Alisertib + Phenformin; first compound 0.5 µM) | relative viability (Alisertib + Olaparib; first compound 0.005 µM) | relative viability (Alisertib + Olaparib; first compound 0.01581 µM) | relative viability (Alisertib + Olaparib; first compound 0.05 µM) | relative viability (Alisertib + Olaparib; first compound 0.1581 µM) | relative viability (Alisertib + Olaparib; first compound 0.5 µM) |
| --- | --- | --- | --- | --- | --- | --- | --- | --- | --- | --- | --- | --- | --- | --- | --- | --- | --- | --- | --- | --- |
| HCC-827 | 0.547 | 0.514 | 0.293 | 0.26 | 0.238 | 0.183 | 0.228 | 0.191 | 0.16 | 0.101 | 0.353 | 0.431 | 0.39 | 0.198 | 0.178 | 0.639 | 0.654 | 0.201 | 0.293 | 0.257 |
| HCC-78 | 0.67 | 0.646 | 0.263 | 0.236 | 0.259 | 0.743 | 0.783 | 0.428 | 0.205 | 0.19 | 0.61 | 0.541 | 0.321 | 0.281 | 0.26 | 0.772 | 0.503 | 0.23 | 0.292 | 0.218 |
| NCI-H2085 | 0.505 | 0.496 | 0.264 | 0.183 | 0.246 | 0.752 | 0.692 | 0.422 | 0.306 | 0.323 | 0.597 | 0.651 | 0.42 | 0.259 | 0.327 | 0.74 | 0.723 | 0.4 | 0.335 | 0.35 |
| PC-3 [JPC-3] | 0.669 | 0.649 | 0.591 | 0.526 | 0.493 | 0.453 | 0.441 | 0.441 | 0.374 | 0.329 | 0.488 | 0.456 | 0.484 | 0.377 | 0.293 | 1.09 | 1.02 | 0.802 | 0.632 | 0.483 |
| NCI-H2342 | 0.758 | 0.809 | 0.483 | 0.481 | 0.443 | – | – | – | – | – | 0.552 | 0.551 | 0.581 | 0.41 | 0.362 | 0.463 | 0.475 | 0.298 | 0.33 | 0.349 |
| A-427 | 0.596 | 0.57 | 0.244 | 0.241 | 0.262 | 0.869 | 0.931 | 0.853 | 0.185 | 0.142 | 0.298 | 0.187 | 0.117 | 0.132 | 0.121 | 0.65 | 0.563 | 0.204 | 0.177 | 0.227 |
| H3255 | 0.662 | 0.637 | 0.441 | 0.309 | 0.295 | 0.277 | 0.256 | 0.269 | 0.169 | 0.176 | 0.329 | 0.338 | 0.313 | 0.299 | 0.294 | 0.547 | 0.566 | 0.385 | 0.292 | 0.24 |
| HCC-44 | 0.963 | 0.931 | 0.509 | 0.4 | 0.32 | 0.991 | 0.922 | 0.906 | 0.242 | 0.151 | 0.146 | 0.193 | 0.134 | 0.0875 | 0.0665 | 0.944 | 0.856 | 0.501 | 0.508 | 0.391 |
| NCI-H1734 | 0.678 | 0.73 | 0.381 | 0.238 | 0.163 | 0.905 | 0.746 | 0.404 | 0.264 | 0.175 | 0.314 | 0.298 | 0.256 | 0.221 | 0.176 | 0.591 | 0.531 | 0.289 | 0.315 | 0.172 |
| NCI-H2228 | 0.565 | 0.24 | 0.237 | 0.121 | 0.113 | 0.731 | 0.562 | 0.182 | 0.115 | 0.209 | 0.277 | 0.287 | 0.17 | 0.0908 | 0.0966 | 0.652 | 0.767 | 0.205 | 0.0922 | 0.0747 |
| ABC-1 | – | – | – | – | – | 1.22 | 1.1 | 1.05 | 0.91 | 0.616 | 0.269 | 0.225 | 0.185 | 0.218 | 0.195 | 0.534 | 0.708 | 0.677 | 0.555 | 0.432 |
| COR-L23 | 0.609 | 0.427 | 0.221 | 0.133 | 0.125 | 0.929 | 0.759 | 0.47 | 0.165 | 0.124 | 0.351 | 0.388 | 0.243 | 0.137 | 0.109 | 0.304 | 0.298 | 0.183 | 0.137 | 0.101 |
| ChaGo-K-1 | 0.772 | 0.795 | 0.213 | 0.191 | 0.159 | – | – | – | – | – | 0.426 | 0.382 | 0.418 | 0.151 | 0.139 | 0.355 | 0.339 | 0.174 | 0.17 | 0.154 |
| EBC-1 | – | – | – | – | – | 0.224 | 0.21 | 0.188 | 0.178 | 0.152 | – | – | – | – | – | 0.609 | 0.478 | 0.195 | 0.216 | 0.132 |
| NCI-H441 | 0.378 | 0.341 | 0.16 | 0.168 | 0.141 | – | – | – | – | – | 0.755 | 0.444 | 0.2 | 0.255 | 0.249 | 0.487 | 0.471 | 0.139 | 0.173 | 0.172 |
| A549 | – | – | – | – | – | 0.812 | 0.235 | 0.148 | 0.0742 | 0.0628 | 0.152 | 0.0871 | 0.0611 | 0.0311 | 0.0352 | 0.317 | 0.305 | 0.0782 | 0.079 | 0.0413 |
| NCI-H1703 | – | – | – | – | – | 1.11 | 0.721 | 0.217 | 0.262 | 0.137 | – | – | – | – | – | 0.534 | 0.387 | 0.198 | 0.153 | 0.141 |
| LCLC-103H | 0.669 | 0.69 | 0.345 | 0.359 | 0.437 | – | – | – | – | – | 0.305 | 0.304 | 0.316 | 0.175 | 0.187 | 0.598 | 0.709 | 0.356 | 0.357 | 0.353 |
| NCI-H1563 | – | – | – | – | – | 1.02 | 0.654 | 0.85 | 0.892 | 0.598 | 0.664 | 0.643 | 0.674 | 0.724 | 0.539 | – | – | – | – | – |
